Laboratory results reported in PubChem BioAssay (NCI).
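Interpolation was linear, between the two tested concentrations surrounding the appropriate level; five concentrations were tested over 48 hours in 96-well plates. TGI denotes the concentration required for complete inhibition of growth.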

Columns and labels:
Assay in all cases: NCI tumour cell line growth inhibition, 48 h
[1] = test system: IGROV1 ovarian
[2] = test system: COLO 205 colon
[3] = test system: NCI-H226 lung
[4] = test system: RXF 393 renal
[5] = test system: SK-MEL-5 melanoma
[6] = test system: SR leukemia
[7] = test system: SNB-19 CNS
[8] = test system: HCT-116 colon
[9] = test system: SF-268 CNS
[10] = test system: PC-3 prostate
[11] = test system: UACC-62 melanoma
[12] = test system: 786-0 renal
[13] = test system: LOX IMVI melanoma
[14] = test system: SNB-75 CNS

Structure (SMILES)	TGI [1] [µM]	TGI [2] [µM]	TGI [3] [µM]	TGI [4] [µM]	TGI [5] [µM]	TGI [6] [µM]	TGI [7] [µM]	TGI [8] [µM]	TGI [9] [µM]	TGI [10] [µM]	TGI [11] [µM]	TGI [12] [µM]	TGI [13] [µM]	TGI [14] [µM]
COC(=O)c1ccc(NCc2cc(O)ccc2O)cc1	24.5	29	24.9	20.2	23.7	> 32.4	70.5	35.7	31.5	19.7	27	22.3	26.1	38.9
CCOC(=O)C(=O)C(CCC(=O)c1ccc2ccccc2c1O)C(=O)OCC (stereo unspecified)	> 100	> 100	> 100	> 100	> 100	> 100	> 100	> 100	> 100	> 100	> 100	> 100	> 100	> 100
C=CCn1c(-c2ccc(-c3cs/c(=N\N=O)n3CC=C)cc2)cs/c1=N\N=O	> 100	> 100	> 100	53	> 100	> 100	> 100	> 100	> 100	> 100	> 100	> 100	> 100	88.5
S=C1N=C(Cl)/C(=C\c2ccccc2)N1	> 100	> 100	> 100	> 100	> 100	> 100	> 100	> 100	> 100	> 100	> 100	> 100	> 100	> 100
CCC(=O)C(C(C)/C=C/CCSc1ccccc1)C(O)CCCCCC(=O)OC (stereo unspecified)	> 100	> 100	> 100	> 100	> 100	> 100	> 100	> 100	> 100	> 100	> 100	> 100	> 100	> 100
CCOC(=O)/C(C#N)=C/c1ccc2c(c1)CC1(C2)Cc2cc(CC)c(C(C)O)cc2C1 (stereo unspecified)	57	66.2	> 64.6	38.5	16.8	> 28.9	43.8	15	32.1	56.8	29.5	39	22	46.3
C=CCN1CN(c2ccccc2)C2(CCN(CCCC3(c4ccc(F)cc4)OCCO3)CC2)C1=O	39.4	37.9	36.2	28.1	29.8	48.7	39.9	28.4	38.5	31.7	34.5	33.6	34.5	32.8
CC1=NN=C(N)NC1=CC(Sc1ccc(Cl)cc1)c1c(O)ccc2ccccc12 (stereo unspecified)	37.3	36.8	14	20.3	21.2	> 100	> 74.9	> 63.2	> 71.1	53.4	25.9	> 65.6	> 65.2	70.2
COc1ccc(CCNCCCC2c3ccccc3-c3ccccc32)cc1OC	26.8	3.4	31.4	26.1	23.3	24.2	31.8	25.8	30.3	29.9	30.3	28.9	28.7	27.2
